How the values were obtained:
[1] = system: peripheral hypertension (HTN); assay: Minipig model of peripheral hypertension; format: in vivo, minipigs; conditions: protocol only; enterically-coated oral capsule
Protocol: In order to test the efficacy of R-107 in peripheral hypertension (HTN), a series of 3 hemodynamic studies is carried out in conscious, instrumented, ambulatory, and telemetered minipigs (n=5) with HTN secondary to an endovascular-created, unilateral, renovascular stenosis. Minipigs are treated with R-107 administered as an enterically-coated oral capsule.
In Series A, the pharmacokinetic profile and hemodynamic effect of a single administration of R-107 (3, 10, 20, 30 mg/kg) is correlated with a one-week washout period between successive dose levels. Animals are monitored for 24 hours to collect continuous hemodynamic data and intermittent plasma concentrations of R-107 and its metabolites (0, 0.25, 0.5, 0.75, 1, 2, 4, 6, 8, 12, 16, 20, and 24 hours). In Series B, the most promising 2 doses of R-107 from Series A are evaluated by carrying out a repeat-dose study of R-107 administered every 6 hours (q6h) for a period of 3 days. The hemodynamic effects of R-107 are correlated with plasma peak and trough concentrations of R-107 and its metabolites obtained q6h. In Series C, the emergence of tachyphylaxis to R-107 in a 2 week repeat-dose study (q6h) is evaluated utilizing the optimal dose determined in Series B, wherein hemodynamics are correlated with plasma pharmacokinetic determinations as in Series B.

[2] = system: myocardial ischemia-reperfusion injury; assay: Rat model of myocardial ischemia-reperfusion injury; format: in vivo, Sprague-Dawley rats; conditions: protocol only; 10, 30, 80 mg/kg IV
Protocol: In order to test the efficacy of R-107 in a myocardial ischemia reperfusion injury, male aged Sprague-Dawley rats are dosed with R-107 (0, 10, 30, 80 mg/kg IV) 10 minutes prior to the end of a 30 minutes period of ischemia produced by occlusion of the left anterior descending (LAD) coronary artery. Cardiac function is monitored by a Millar catheter for the determination of heart rate (HR), systolic and diastolic blood pressure (BP), left ventricular (LV) systolic BP, LV end-diastolic BP (LVEDP), ±dP/dt, pressure-volume (PV) loop, and tau (τ). 3 hours post-ischemia, blood and myocardium are analyzed for morphologic, histochemical, and bioanalytical injury. The area of necrosis, as a % of area at risk (AAR), and the extent of the no-reflow zone are quantified.

[3] = system: contrast-induced nephropathy (CIN); assay: Rat model of contrast-induced nephropathy; format: in vivo, Sprague-Dawley rats; conditions: protocol only; 10, 20, 40 mg/kg/day BID IV
Protocol: In order to test the efficacy of R-107 in contrast-induced nephropathy (CIN), a single-blinded study of CIN is carried out in Sprague-Dawley rats (n=10 per group) subjected to dehydration, prostaglandin synthetase inhibition, and an IV challenge of contrast media (CM). A sham injury group is compared to treatment of CM-challenged healthy rats with R-107 (10, 20, 40 mg/kg/day in 5% dextrose, BID IV), N-acetylcysteine (NAC, 100 mg/kg/day in 5% dextrose, BID), or vehicle control (hydroxypropyl cyclodextrin, HPCD) initiated 10 min before CM administration and continued for 48 hours. Rats are evaluated at 48 hours for renal function (blood urea nitrogen to creatinine ratio, BUN:creatinine) and parameters reflecting renal injury, including protein release into the blood (NGAL; kidney injury molecule-1, KIM-1), pro-inflammatory transcription factor expression (cytoplasmic IkBa degradation, nuclear p65 translocation), histologic damage (H&E), mitochondrial swelling (electron microscopy), and nuclear damage and DNA repair (PARP activation and nitrosative stress as noted by poly(ADP-ribose) and 3-nitrotyrosine (3-NT) tissue immunoreactivity). […]

[4] = system: limb ischemia reperfusion injury (LIRI); assay: Minipig model of limb ischemia-reperfusion injury; format: in vivo, minipigs; conditions: protocol only; 10, 30, 80 mg/kg/day TID
Protocol: In this study, the efficacy of R-107 in a limb ischemia reperfusion injury (LIRI) is tested. In a large animal model of acute LIRI (n=6 minipigs per group) induced by an endovascular balloon occlusion of the femoral artery for 6 hours, parenteral R-107 (0, 10, 30, 80 mg/kg/day TID) is initiated 10 minutes before reperfusion via direct arterial infusion, followed by an IV infusion thereafter. At 7, 14, and 21 days after reperfusion, limb perfusion (by Doppler flow) is correlated with nerve conduction velocity (NCV, per electromyography, EMG), and muscle strength (by foot pressure on a walking surface) with simultaneous plasma concentrations of R-107.

CC(=O)ON1C(C)(C)CC(CO[N+](=O)[O-])C1(C)C (stereo not shown) [R-107, 2,2,5,5-tetramethyl-3-(nitrooxymethyl)pyrrolidin-1-yl acetate]
Effective: Efficacy in minipig model of peripheral hypertension [1] | Efficacy in rat model of myocardial ischemia-reperfusion injury [2] | Efficacy in rat model of contrast-induced nephropathy [3] | Efficacy in minipig model of limb ischemia-reperfusion injury [4]

Source: US9604932B2 (priority 2013, dated 2017)
